Experiments:
HBO1 [1] = target: T1, HBO1 (Homo sapiens, UniProt O95251); assay: isothermal titration calorimetry (supported by in vitro histone acetylation assay with purified HBO1); assay type: binding
T1 construct: gene KAT7; HBO1 (336-611), acyltransferase/catalytic domain, purified from E. coli

HBO1 [2] = target: T1, HBO1; assay: isothermal titration calorimetry (supported by in vitro histone lactylation assay with purified HBO1); assay type: binding

T1 sequence (O95251 336-611): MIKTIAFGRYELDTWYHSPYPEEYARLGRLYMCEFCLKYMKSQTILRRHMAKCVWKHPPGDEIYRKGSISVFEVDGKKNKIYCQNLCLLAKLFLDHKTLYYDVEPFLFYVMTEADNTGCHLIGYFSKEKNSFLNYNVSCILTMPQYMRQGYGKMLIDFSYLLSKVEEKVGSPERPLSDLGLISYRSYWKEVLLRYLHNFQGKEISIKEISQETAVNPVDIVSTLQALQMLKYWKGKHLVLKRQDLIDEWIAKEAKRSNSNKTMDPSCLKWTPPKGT

Row | Kd (HBO1 [1]) [nM] | Kd (HBO1 [2]) [nM] | Compound
1 | 1460 |  | CC(=O)SCCNC(=O)CCNC(=O)[C@H](O)C(C)(C)COP(=O)(O)OP(=O)(O)OC[C@H]1O[C@@H](n2cnc3c(N)ncnc32)[C@H](O)[C@@H]1OP(=O)(O)O [acetyl-CoA]
2 |  | 520 | C[C@H](O)C(=O)SCCNC(=O)CCNC(=O)[C@H](O)C(C)(C)COP(=O)(O)OP(=O)(O)OC[C@H]1O[C@@H](n2cnc3c(N)ncnc32)[C@H](O)[C@@H]1OP(=O)(O)O [lactyl-CoA]

Source: article PMC11053077, “HBO1 catalyzes lysine lactylation and mediates histone H3K9la to regulate gene transcription” (Nature Communications, 2024)
